In the NIST ThermoML archive (doi:10.1016/j.jct.2010.09.008):
± gives the expanded uncertainty stated by the source.

Columns and labels:
[1] = relative permittivity at zero frequency (dimensionless); conditions: 101.33 kPa, Liquid, AC method
[2] = 101.33 kPa, Liquid, Vibrating tube method
[3] = relative permittivity at zero frequency (dimensionless); xn = mol fraction of the nth substance listed; conditions: 101.3 kPa, Liquid, AC Method
[4] = xn = mol fraction of the nth substance listed; conditions: 101.3 kPa, Liquid, Vibrating tube method

COCCOCCOCCOCCOC [2,5,8,11,14-pentaoxapentadecane]
Conditions | mass density, 288.15 K [kg/m3] | mass density, 298.15 K [kg/m3] | mass density, 308.15 K [kg/m3] | relative permittivity at zero frequency, 288.15 K | relative permittivity at zero frequency, 298.15 K | relative permittivity at zero frequency, 308.15 K
[1] | – | – | – | 8.04 ± 0.16 | 7.78 ± 0.16 | 7.55 ± 0.15
[2] | 1015.96 ± 0.3 | 1006.68 ± 0.29 | 997.27 ± 0.29 | – | – | –

CCCCCCC [heptane]
Conditions | mass density, 288.15 K [kg/m3] | mass density, 298.15 K [kg/m3] | mass density, 308.15 K [kg/m3] | relative permittivity at zero frequency, 288.15 K | relative permittivity at zero frequency, 298.15 K | relative permittivity at zero frequency, 308.15 K
[1] | – | – | – | 1.94 ± 0.04 | 1.93 ± 0.04 | 1.92 ± 0.04
[2] | 688.03 ± 0.3 | 679.58 ± 0.31 | 671.03 ± 0.31 | – | – | –

COCCOCCOC [2,5,8-trioxanonane]
Conditions | mass density, 288.15 K [kg/m3] | mass density, 298.15 K [kg/m3] | mass density, 308.15 K [kg/m3] | relative permittivity at zero frequency, 288.15 K | relative permittivity at zero frequency, 298.15 K | relative permittivity at zero frequency, 308.15 K
[1] | – | – | – | 7.69 ± 0.15 | 7.4 ± 0.15 | 7.12 ± 0.14
[2] | 949.34 ± 0.22 | 939.35 ± 0.22 | 929.36 ± 0.22 | – | – | –

COCCOC [1,2-dimethoxyethane]
Conditions | mass density, 288.15 K [kg/m3] | mass density, 298.15 K [kg/m3] | mass density, 308.15 K [kg/m3] | relative permittivity at zero frequency, 288.15 K | relative permittivity at zero frequency, 298.15 K | relative permittivity at zero frequency, 308.15 K
[1] | – | – | – | 7.41 ± 0.15 | 7.07 ± 0.14 | 6.75 ± 0.14
[2] | 872.05 ± 0.22 | 861.14 ± 0.22 | 850.06 ± 0.22 | – | – | –

COCCOC [1,2-dimethoxyethane] + CCCCCCC
Conditions | mass density [kg/m3] | relative permittivity at zero frequency
[3], 288.15 K, x2 = 0.1012 | – | 6.32 ± 0.13
[3], 288.15 K, x2 = 0.2002 | – | 5.43 ± 0.11
[3], 288.15 K, x2 = 0.3003 | – | 4.69 ± 0.09
[3], 288.15 K, x2 = 0.3997 | – | 4.07 ± 0.08
[3], 288.15 K, x2 = 0.5024 | – | 3.52 ± 0.07
[3], 288.15 K, x2 = 0.6016 | – | 3.07 ± 0.06
[3], 288.15 K, x2 = 0.7002 | – | 2.72 ± 0.05
[3], 288.15 K, x2 = 0.7979 | – | 2.42 ± 0.05
[3], 288.15 K, x2 = 0.9022 | – | 2.15 ± 0.04
[3], 288.15 K, x2 = 0.9511 | – | 2.04 ± 0.04
[3], 298.15 K, x2 = 0.1013 | – | 6.04 ± 0.12
[3], 298.15 K, x2 = 0.2013 | – | 5.2 ± 0.1
[3], 298.15 K, x2 = 0.3011 | – | 4.5 ± 0.09
[3], 298.15 K, x2 = 0.3992 | – | 3.92 ± 0.08
[3], 298.15 K, x2 = 0.503 | – | 3.41 ± 0.07
[3], 298.15 K, x2 = 0.6035 | – | 3 ± 0.06
[3], 298.15 K, x2 = 0.7028 | – | 2.67 ± 0.05
[3], 298.15 K, x2 = 0.7982 | – | 2.38 ± 0.05
[3], 298.15 K, x2 = 0.902 | – | 2.13 ± 0.04
[3], 298.15 K, x2 = 0.9497 | – | 2.03 ± 0.04
[3], 308.15 K, x2 = 0.0493 | – | 6.26 ± 0.13
[3], 308.15 K, x2 = 0.1001 | – | 5.79 ± 0.12
[3], 308.15 K, x2 = 0.2005 | – | 4.99 ± 0.1
[3], 308.15 K, x2 = 0.3016 | – | 4.34 ± 0.09
[3], 308.15 K, x2 = 0.399 | – | 3.8 ± 0.08
[3], 308.15 K, x2 = 0.5009 | – | 3.32 ± 0.07
[3], 308.15 K, x2 = 0.603 | – | 2.93 ± 0.06
[3], 308.15 K, x2 = 0.7028 | – | 2.6 ± 0.05
[3], 308.15 K, x2 = 0.802 | – | 2.33 ± 0.05
[3], 308.15 K, x2 = 0.8974 | – | 2.11 ± 0.04
[3], 308.15 K, x2 = 0.9505 | – | 2.01 ± 0.04
[4], 288.15 K, x2 = 0.0495 | 857.82 ± 0.23 | –
[4], 288.15 K, x2 = 0.0995 | 844.28 ± 0.23 | –
[4], 288.15 K, x2 = 0.2045 | 818.14 ± 0.23 | –
[4], 288.15 K, x2 = 0.2979 | 797.21 ± 0.24 | –
[4], 288.15 K, x2 = 0.403 | 775.91 ± 0.25 | –
[4], 288.15 K, x2 = 0.5042 | 757.33 ± 0.25 | –
[4], 288.15 K, x2 = 0.5998 | 741.27 ± 0.26 | –
[4], 288.15 K, x2 = 0.7021 | 725.61 ± 0.27 | –
[4], 288.15 K, x2 = 0.8053 | 711.33 ± 0.28 | –
[4], 288.15 K, x2 = 0.8998 | 699.44 ± 0.29 | –
[4], 288.15 K, x2 = 0.9508 | 693.43 ± 0.3 | –
[4], 298.15 K, x2 = 0.0503 | 846.65 ± 0.23 | –
[4], 298.15 K, x2 = 0.0974 | 834.02 ± 0.23 | –
[4], 298.15 K, x2 = 0.2008 | 808.4 ± 0.23 | –
[4], 298.15 K, x2 = 0.2994 | 786.5 ± 0.24 | –
[4], 298.15 K, x2 = 0.401 | 766.2 ± 0.25 | –
[4], 298.15 K, x2 = 0.5026 | 747.97 ± 0.25 | –
[4], 298.15 K, x2 = 0.5967 | 732.41 ± 0.26 | –
[4], 298.15 K, x2 = 0.6994 | 716.96 ± 0.27 | –
[4], 298.15 K, x2 = 0.8019 | 702.94 ± 0.28 | –
[4], 298.15 K, x2 = 0.9009 | 690.67 ± 0.29 | –
[4], 298.15 K, x2 = 0.9509 | 684.9 ± 0.3 | –
[4], 308.15 K, x2 = 0.0496 | 836.12 ± 0.23 | –
[4], 308.15 K, x2 = 0.0998 | 822.77 ± 0.23 | –
[4], 308.15 K, x2 = 0.2009 | 798.1 ± 0.24 | –
[4], 308.15 K, x2 = 0.3035 | 775.66 ± 0.24 | –
[4], 308.15 K, x2 = 0.4011 | 756.35 ± 0.25 | –
[4], 308.15 K, x2 = 0.5021 | 738.24 ± 0.26 | –
[4], 308.15 K, x2 = 0.6 | 722.36 ± 0.26 | –
[4], 308.15 K, x2 = 0.7018 | 707.33 ± 0.27 | –
[4], 308.15 K, x2 = 0.8036 | 693.71 ± 0.28 | –
[4], 308.15 K, x2 = 0.9014 | 681.82 ± 0.29 | –
[4], 308.15 K, x2 = 0.9519 | 676.15 ± 0.3 | –

COCCOCCOCCOCCOC [2,5,8,11,14-pentaoxapentadecane] + CCCCCCC
Conditions | mass density, [4] [kg/m3] | relative permittivity at zero frequency, [3]
288.15 K, x2 = 0.0498 | – | 7.74 ± 0.15
288.15 K, x2 = 0.0505 | 1004.42 ± 0.3 | –
288.15 K, x2 = 0.0975 | 993.3 ± 0.3 | –
288.15 K, x2 = 0.0999 | – | 7.42 ± 0.15
288.15 K, x2 = 0.1982 | 968.25 ± 0.3 | –
288.15 K, x2 = 0.2001 | – | 6.79 ± 0.14
288.15 K, x2 = 0.3 | 941.07 ± 0.3 | 6.15 ± 0.12
288.15 K, x2 = 0.3985 | – | 5.52 ± 0.11
288.15 K, x2 = 0.4 | 912.66 ± 0.3 | –
288.15 K, x2 = 0.5009 | 881.97 ± 0.3 | –
288.15 K, x2 = 0.5076 | – | 4.82 ± 0.1
288.15 K, x2 = 0.6017 | 848.59 ± 0.3 | –
288.15 K, x2 = 0.6033 | – | 4.2 ± 0.08
288.15 K, x2 = 0.6931 | 816.13 ± 0.3 | –
288.15 K, x2 = 0.7044 | – | 3.58 ± 0.07
288.15 K, x2 = 0.7998 | 775.06 ± 0.31 | –
288.15 K, x2 = 0.8028 | – | 2.99 ± 0.06
288.15 K, x2 = 0.8972 | 734.27 ± 0.31 | –
288.15 K, x2 = 0.8985 | – | 2.45 ± 0.05
288.15 K, x2 = 0.8994 | – | 2.45 ± 0.05
288.15 K, x2 = 0.9466 | 712.33 ± 0.31 | –
288.15 K, x2 = 0.9495 | – | 2.19 ± 0.04
298.15 K, x2 = 0.0496 | – | 7.49 ± 0.15
298.15 K, x2 = 0.0499 | 995.11 ± 0.3 | –
298.15 K, x2 = 0.0996 | 983.28 ± 0.3 | –
298.15 K, x2 = 0.1016 | – | 7.19 ± 0.14
298.15 K, x2 = 0.1994 | – | 6.58 ± 0.13
298.15 K, x2 = 0.1995 | 958.5 ± 0.3 | –
298.15 K, x2 = 0.2961 | 932.8 ± 0.3 | –
298.15 K, x2 = 0.299 | – | 5.97 ± 0.12
298.15 K, x2 = 0.4031 | 902.6 ± 0.3 | –
298.15 K, x2 = 0.406 | – | 5.31 ± 0.11
298.15 K, x2 = 0.4975 | 873.81 ± 0.3 | –
298.15 K, x2 = 0.5037 | – | 4.7 ± 0.09
298.15 K, x2 = 0.6024 | – | 4.1 ± 0.08
298.15 K, x2 = 0.6043 | 838.65 ± 0.3 | –
298.15 K, x2 = 0.6975 | 805.52 ± 0.3 | –
298.15 K, x2 = 0.7027 | – | 3.51 ± 0.07
298.15 K, x2 = 0.8001 | – | 2.95 ± 0.06
298.15 K, x2 = 0.8006 | 765.91 ± 0.31 | –
298.15 K, x2 = 0.8982 | 725.23 ± 0.31 | –
298.15 K, x2 = 0.9013 | – | 2.41 ± 0.05
298.15 K, x2 = 0.948 | 703.4 ± 0.31 | –
298.15 K, x2 = 0.9499 | – | 2.16 ± 0.04
308.15 K, x2 = 0.0469 | 986.65 ± 0.3 | –
308.15 K, x2 = 0.0503 | – | 7.25 ± 0.15
308.15 K, x2 = 0.0979 | 974.59 ± 0.3 | –
308.15 K, x2 = 0.1003 | – | 6.95 ± 0.14
308.15 K, x2 = 0.1976 | 949.94 ± 0.3 | –
308.15 K, x2 = 0.201 | – | 6.36 ± 0.13
308.15 K, x2 = 0.2944 | 924.23 ± 0.3 | –
308.15 K, x2 = 0.2949 | – | 5.82 ± 0.12
308.15 K, x2 = 0.3006 | 922.61 ± 0.3 | –
308.15 K, x2 = 0.3924 | – | 5.24 ± 0.1
308.15 K, x2 = 0.404 | 893.13 ± 0.3 | –
308.15 K, x2 = 0.4956 | 865.23 ± 0.3 | –
308.15 K, x2 = 0.5048 | – | 4.58 ± 0.09
308.15 K, x2 = 0.6018 | 830.49 ± 0.3 | –
308.15 K, x2 = 0.6066 | – | 3.98 ± 0.08
308.15 K, x2 = 0.6965 | 796.89 ± 0.31 | –
308.15 K, x2 = 0.7117 | – | 3.38 ± 0.07
308.15 K, x2 = 0.7981 | 758.07 ± 0.31 | –
308.15 K, x2 = 0.7999 | – | 2.9 ± 0.06
308.15 K, x2 = 0.8986 | 716.39 ± 0.31 | –
308.15 K, x2 = 0.8988 | – | 2.38 ± 0.05
308.15 K, x2 = 0.9479 | 694.69 ± 0.32 | –
308.15 K, x2 = 0.9491 | – | 2.14 ± 0.04
